Assay results published in patent US7205299B2, “Indole derivatives having an apoptosis-inducing effect” (Zentaris GmbH, priority 2003, dated 2007).
≈ marks a conversion by molar mass, not a printed value. Where “and” joins values, the source holds several entries; their conditions need not be identical. Identical values can stand only once.

Columns and labels:
bovine tubulin = bovine tubulin (Bos taurus, UniProt P81947+Q6B856); experiment: Inhibition of tubulin polymerization; format: biochemical; conditions: summary of Table 3
Sequence of bovine tubulin (P81947 whole entry): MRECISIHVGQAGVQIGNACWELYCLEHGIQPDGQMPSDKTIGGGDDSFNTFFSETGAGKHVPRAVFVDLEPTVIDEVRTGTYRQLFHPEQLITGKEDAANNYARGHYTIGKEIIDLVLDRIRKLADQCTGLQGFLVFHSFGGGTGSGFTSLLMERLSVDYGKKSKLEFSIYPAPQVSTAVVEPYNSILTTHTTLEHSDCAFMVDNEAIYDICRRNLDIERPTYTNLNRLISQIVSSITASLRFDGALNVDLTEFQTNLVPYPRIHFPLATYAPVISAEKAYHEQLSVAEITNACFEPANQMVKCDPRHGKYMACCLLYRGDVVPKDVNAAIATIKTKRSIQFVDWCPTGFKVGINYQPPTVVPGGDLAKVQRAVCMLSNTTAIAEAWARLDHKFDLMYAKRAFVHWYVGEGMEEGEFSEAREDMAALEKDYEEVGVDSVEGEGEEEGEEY
Sequence of bovine tubulin (Q6B856 whole entry): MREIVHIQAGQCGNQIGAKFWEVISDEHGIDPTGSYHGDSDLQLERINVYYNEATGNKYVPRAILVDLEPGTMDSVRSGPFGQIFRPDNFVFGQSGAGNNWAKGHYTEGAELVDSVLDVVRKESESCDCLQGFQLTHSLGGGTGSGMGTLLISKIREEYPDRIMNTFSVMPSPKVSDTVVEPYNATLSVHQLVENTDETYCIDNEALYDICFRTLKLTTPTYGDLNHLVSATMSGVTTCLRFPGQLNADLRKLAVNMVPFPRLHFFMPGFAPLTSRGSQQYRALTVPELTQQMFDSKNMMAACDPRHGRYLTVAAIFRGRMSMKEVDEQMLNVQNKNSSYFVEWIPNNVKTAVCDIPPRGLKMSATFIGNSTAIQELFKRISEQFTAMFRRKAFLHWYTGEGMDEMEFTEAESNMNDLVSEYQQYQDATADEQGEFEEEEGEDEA
Experimental: Substances 1, 4, 9, 11, 12, 13 and 15 were tested for their ability to inhibit the polymerization of bovine tubulin in an in-vitro test (D. M. Bollag et al. Cancer Res. 1995, 55, 2325–2333). This test uses-tubulin which has been purified by cycles of polymerization and depolymerization and which is caused to polymerize by adding GTP and heating it. Table 3 gives the EC50 values causing inhibition of the polymerization of tubulin containing 30% associated proteins (MPAs).

[1] = Saturation solubility in water; format: physicochemical; conditions: thermodynamic from solid, maximum of 1% DMSO, HPLC-UV
Experimental: A maximum of 1% DMSO was added for the purpose of solubilizing the substances and improving the wetting of the samples. An HPLC-UV method was used for checking the content.

human topoisomerase II = human topoisomerase II (Homo sapiens, UniProt P11388); experiment: pRYG relaxation assay for testing topoisomerase II activity; format: biochemical; conditions: compound 1 at 100, 31.6 and 10 μM; reference compounds 316 and 100 μM
Sequence of human topoisomerase II (P11388 whole entry): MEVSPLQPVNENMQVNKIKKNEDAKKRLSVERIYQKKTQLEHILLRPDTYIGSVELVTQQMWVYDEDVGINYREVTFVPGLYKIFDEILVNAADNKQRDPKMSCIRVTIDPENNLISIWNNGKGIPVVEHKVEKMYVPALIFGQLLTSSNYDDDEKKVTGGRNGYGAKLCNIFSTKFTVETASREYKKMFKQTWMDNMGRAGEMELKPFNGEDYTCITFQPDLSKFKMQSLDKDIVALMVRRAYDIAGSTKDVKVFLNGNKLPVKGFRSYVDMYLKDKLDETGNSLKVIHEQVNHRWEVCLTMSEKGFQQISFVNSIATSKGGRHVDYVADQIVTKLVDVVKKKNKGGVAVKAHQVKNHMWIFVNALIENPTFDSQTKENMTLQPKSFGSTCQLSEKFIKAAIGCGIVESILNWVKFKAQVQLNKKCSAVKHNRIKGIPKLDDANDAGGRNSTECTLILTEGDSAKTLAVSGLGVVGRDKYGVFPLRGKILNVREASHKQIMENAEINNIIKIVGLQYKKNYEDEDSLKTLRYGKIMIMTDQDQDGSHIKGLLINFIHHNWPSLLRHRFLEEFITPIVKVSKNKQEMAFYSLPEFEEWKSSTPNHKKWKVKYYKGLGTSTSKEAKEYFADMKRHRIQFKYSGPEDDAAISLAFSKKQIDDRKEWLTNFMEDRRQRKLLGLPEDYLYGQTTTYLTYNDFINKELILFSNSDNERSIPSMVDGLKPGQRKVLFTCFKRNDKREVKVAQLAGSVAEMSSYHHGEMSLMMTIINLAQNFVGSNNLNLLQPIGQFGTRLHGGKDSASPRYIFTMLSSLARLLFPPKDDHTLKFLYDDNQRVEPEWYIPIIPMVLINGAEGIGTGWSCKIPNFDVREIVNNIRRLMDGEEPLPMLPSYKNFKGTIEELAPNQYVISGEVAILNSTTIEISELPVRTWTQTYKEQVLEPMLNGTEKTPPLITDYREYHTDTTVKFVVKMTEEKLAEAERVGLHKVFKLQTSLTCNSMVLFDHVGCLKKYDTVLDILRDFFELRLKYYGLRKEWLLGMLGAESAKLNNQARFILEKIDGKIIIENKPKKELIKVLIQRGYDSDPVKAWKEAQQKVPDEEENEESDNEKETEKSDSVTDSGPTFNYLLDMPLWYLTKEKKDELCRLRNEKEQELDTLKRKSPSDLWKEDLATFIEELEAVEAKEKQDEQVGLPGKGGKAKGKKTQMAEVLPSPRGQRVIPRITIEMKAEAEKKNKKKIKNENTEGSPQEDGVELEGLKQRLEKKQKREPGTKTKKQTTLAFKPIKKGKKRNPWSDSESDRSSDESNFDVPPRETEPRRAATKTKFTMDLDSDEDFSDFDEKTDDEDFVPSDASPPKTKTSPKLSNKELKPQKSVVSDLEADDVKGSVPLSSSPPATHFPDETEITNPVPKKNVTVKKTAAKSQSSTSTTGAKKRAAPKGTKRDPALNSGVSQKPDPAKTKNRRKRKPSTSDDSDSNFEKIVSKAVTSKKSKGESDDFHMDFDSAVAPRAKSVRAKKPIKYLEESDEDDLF
Experimental: In the assay, the compound 1 according to the invention was tested at three different concentrations (100, 31.6 and 10 μM). The reference compounds m-amsacrine, paclitaxel (Taxol) and vincristine were used, at concentrations of 316 and 100 μM, for comparison.
2 μL of 10× assay buffer, 0.5 μL of pRYG DNA (125 ng), 0.5 μL of human topoisomerase II (1 unit) and 16 μL of H2O are added by pipette to 1 μL of initially introduced test substance (20 times concentrated in 100% DMSO) and the reagents are mixed. The reaction assay samples are placed in a heating block which has been preheated to 37° C. and incubated at 37° C. for 30 min. The incubation is stopped after adding 4 μL of 5× Stop buffer. After that, 10 μL of the assay sample are loaded onto a 1.2% agarose gel containing 0.25 μg of ethidium bromide/mL and separated at 100 V for 2.5 h. Finally, the gel is photographed under UV excitation (see FIG. 3). The inhibition of pRYG relaxation is quantified using the GelPro® Analyzer Software (see FIG. 4).

[2] = molecular target: human DNA topoisomerase II (Homo sapiens, UniProt P11388); experiment: kDNA assay for testing topoisomerase II activity; format: biochemical; conditions: compound 1 at 100, 31.6 and 10 μM; reference compounds 100 μM
Sequence of human DNA topoisomerase II (P11388 whole entry): as above
Experimental: In this assay, which was described by P. Arimondo (Anti-Cancer Drug Design 2000, 15(6), 413–421), kDNA is treated with human DNA topoisomerase II in the absence or presence of the test compounds. In the assay, compound 1 according to the invention was tested at three different concentrations (100, 31.6 and 10 μM). A positive control and the reference compounds m-amsacrine (m-amsa), paclitaxel (Taxol) and vincristine, with the concentration in each case being 100 μM, were used for comparison.
2 μL of 10× assay buffer, 1 μL of kDNA (200 ng), 0.5 μL of human topoisomerase II (1 unit) and 15.5 μL of H2O are added by pipette to 1 μL of initially introduced test substance (20 times concentrated in 100% DMSO) and the reagents are mixed.
The reaction assay samples are placed in a heating block which has been preheated to 37° C. and incubated at 37° C. for 10 min. The incubation is stopped after adding 4 μL of 5× Stop buffer and the substance is subsequently extracted with CIA. After that, 20 μL of the supernatant are loaded onto a 1% agarose gel containing 0.25 μg of ethidium bromide/mL and separated at 100 V for 1 h. Finally, the gel is photographed under UV excitation (see FIG. 1). The inhibition of the decatenation of kDNA is quantified using the GelPro® Analyzer Software (see FIG. 2).

U-937 cell line = experiment: CDDplus nucleosome ELISA test (apoptosis); format: cell-based; conditions: U-937, 1 nM–10 μM, 24 h of treatment
Experimental: Nuclear fragmentation is a late consequence of apoptotic processes. The changes which can be observed in this connection can be attributed to DNA strands being cleaved by endonucleases and the fragmentation into nucleosome particles which results therefrom.
For this, the effects of compounds 1 and 2 on the U-937 cell line were investigated at different concentrations (1 nM–10 μM; 24 h of treatment). (See FIG. 5 and FIG. 6).

mammary gland, MAXF857 = experiment: Human xenograft model, mammary gland MAXF857; format: in vivo
From the text: The in-vivo activity and tolerability of compound 2 according to the invention, as compared with those of substance 10, were examined in another human xenograft model (mammary gland, MAXF857).

melanoma, MEXF-462 = experiment: Human xenograft model, melanoma MEXF-462; format: in vivo; conditions: for tolerability (in words): MEXF462 xenograft, p.o.
From the text: The in-vivo activity and tolerability of compound 2 according to the invention, as compared with those of substances 10 and 14, were examined in a human xenograft model (melanoma, MEXF-462).

murine cell line L1210 = experiment: XTT proliferation assay, L1210; format: cell-based; conditions: Mus musculus
From the text: (§1) For further characterization, substances 1, 2, 4 and 11 were investigated with regard to their effect on mulitdrug-resistance cell lines as compared with that on nonresistant wild-type cell lines.
(§2) The cell lines which were investigated are the murine cell line L1210, the acute myeloid leukemia cell line LT12 and the resistant lines L1210/mdr and LT12/mdr. The murine cell line P388 (methylcholanthrene-induced lymphoid neoplasm) and doxorubicin-resistant P388 were also included as test systems.
(§3) The test results are summarized in Table 2 below: • XTT proliferation assay, EC50 in μg/ml

murine cell line P388 = experiment: XTT proliferation assay, P388; format: cell-based; conditions: Mus musculus
From the text: as §1, §2, §3

resistant line LT12/mdr = experiment: XTT proliferation assay, LT12/mdr; format: cell-based; conditions: Rattus norvegicus, LT12mdr
From the text: as §1, §2, §3

[3] = test system: resistant line L1210/mdr (L1210VCR); experiment: XTT proliferation assay, L1210VCR; format: cell-based, murine; conditions: Mus musculus
From the text: as §1, §2, §3

[4] = test system: acute myeloid leukemia cell line LT12; experiment: XTT proliferation assay, LT12; format: cell-based; conditions: Rattus norvegicus
From the text: as §1, §2, §3

[5] = test system: doxorubicin-resistant P388; experiment: XTT proliferation assay, P388ADR; format: cell-based, murine; conditions: Mus musculus
From the text: as §1, §2, §3

KB/HeLa cells = experiment: Cell cycle analysis (G2/M arrest); format: cell-based; conditions: Homo sapiens, 24 hours, 37° C., read-out: EC50 (50% of cells in G2/M)
Experimental: For the cell cycle analysis, KB/HeLa cells were treated with different concentrations of the test substances (0.1–1000 nM) at 37° C. for 24 hours.
The percentage of cells arrested in the G2/M phase of the cell cycle after having been treated with reference substances or selected test substances is shown in Table 4 below. The results were analyzed using special analytical software (ModFit™).

O=C(Nc1cnc2nccnc2c1)C(=O)c1cn(Cc2ccc(Cl)cc2)c2ccccc12 [Compound 1, 2-[1-(4-chlorobenzyl)-1H-indol-3-yl]-2-oxo-N-pyrido[2,3-b]pyrazin-7-ylacetamide]
inhibitory effect on tubulin polymerization (in words) (bovine tubulin): very potent inhibitory effect
solubility [1]: 25 µg/mL (≈ 56.6 µM)
inhibition of topoisomerase II, pRYG DNA relaxation (human topoisomerase II): significantly inhibit topoisomerase II
inhibition of topoisomerase II, kDNA decatenation [2]: significantly inhibit topoisomerase II
nucleosomes in the cell culture supernatant (U-937 cell line): not possible to demonstrate any significant increase
nucleosomes in the cell lysate (U-937 cell line): concentration-dependent increase of nucleosomes in the cell lysate

CC(=O)N(C(=O)C(=O)c1cn(Cc2ccc(Cl)cc2)c2ccccc12)c1ccc2ncccc2c1 [Compound 2, N-{2-[1-(4-chlorobenzyl)-1H-indol-3-yl]-2-oxoacetyl}-N-quinolin-6-ylacetamide]
solubility [1]: 28.5 µg/mL (≈ 59.1 µM)
Deaths n (dead animals / total number) (mammary gland, MAXF857; MAXF857, 80 mg/kg p.o.): 0/6 mice
Optimum T/C % (day) (mammary gland, MAXF857; MAXF857, 80 mg/kg p.o., day 10): 9.6% (10)
Deaths n (dead animals / total number) (melanoma, MEXF-462; MEXF462, 80 mg/kg p.o.): 0/6 mice
remission of the tumors (melanoma, MEXF-462; MEXF462, 80 mg/kg p.o., 6 animals): complete remission of the tumors in the treated animals
Optimum T/C % (day) (melanoma, MEXF-462; MEXF462, 80 mg/kg p.o., day 18): 0.0% (18)
tolerability (in words) (melanoma, MEXF-462): very well tolerated (no deaths)
nucleosomes in the cell culture supernatant (U-937 cell line): not possible to demonstrate any significant increase
nucleosomes in the cell lysate (U-937 cell line): concentration-dependent increase of nucleosomes in the cell lysate

O=C(Nc1ccc2[nH]ncc2c1)C(=O)c1cn(Cc2ccc(Cl)cc2)c2ccccc12 [Compound 4, 2-[1-(4-chlorobenzyl)-1H-indol-3-yl]-N-(1H-indazol-5-yl)-2-oxoacetamide]
inhibitory effect on tubulin polymerization (in words) (bovine tubulin): very potent inhibitory effect
melting point: 203 °C

Cc1ccc2cc(NC(=O)C(=O)c3cn(Cc4ccc(Cl)cc4)c4ccccc34)ccc2n1 [Compound 9, 2-[1-(4-chlorobenzyl)-1H-indol-3-yl]-N-(2-methylquinolin-6-yl)-2-oxoacetamide]
inhibitory effect on tubulin polymerization (in words) (bovine tubulin): very potent inhibitory effect

O=C(Nc1ccc2ncccc2c1)C(=O)c1cn(Cc2ccc(Cl)cc2)c2ccccc12 [Compound 10, 2-[1-(4-chlorobenzyl)-1H-indol-3-yl]-2-oxo-N-quinolin-6-ylacetamide]
solubility [1]: 0.038 µg/mL (≈ 0.0864 µM)
Deaths n (dead animals / total number) (mammary gland, MAXF857; MAXF857, 40 mg/kg p.o.): 2/6 and 2/6 mice
tolerability (in words) (mammary gland, MAXF857; MAXF857 xenograft, p.o.): substantially less well tolerated than 2
Deaths n (dead animals / total number) (melanoma, MEXF-462; MEXF462, 55 mg/kg p.o.): 2/6 mice
Deaths n (dead animals / total number) (melanoma, MEXF-462; MEXF462, 70 mg/kg p.o.): 5/6 mice
tolerability (in words) (melanoma, MEXF-462): less well tolerated

O=C(Nc1cccc2cccnc12)C(=O)c1cn(Cc2ccc(Cl)cc2)c2ccccc12 [Compound 12, 2-[1-(4-chlorobenzyl)-1H-indol-3-yl]-2-oxo-N-quinolin-8-ylacetamide]
inhibitory effect on tubulin polymerization (in words) (bovine tubulin): do not exert any effect
melting point: 178 °C

O=C(Nc1ccncc1)C(=O)c1cn(Cc2ccc(Cl)cc2)c2ccccc12 [Compound 14, 2-[1-(4-chlorobenzyl)-1H-indol-3-yl]-2-oxo-N-pyridin-4-ylacetamide]
solubility [1]: 0.35 µg/mL (≈ 0.898 µM)
Deaths n (dead animals / total number) (melanoma, MEXF-462; MEXF462, 16 mg/kg p.o.): 3/5 mice
Deaths n (dead animals / total number) (melanoma, MEXF-462; MEXF462, 32 mg/kg p.o.): 3/5 mice
tolerability (in words) (melanoma, MEXF-462): less well tolerated

Cc1ccc2cccc(NC(=O)C(=O)c3cn(Cc4ccc(F)cc4)c4ccccc34)c2n1 [Compound 15, 2-[1-(4-fluorobenzyl)-1H-indol-3-yl]-N-(2-methylquinolin-8-yl)-2-oxoacetamide]
inhibitory effect on tubulin polymerization (in words) (bovine tubulin): do not exert any effect
melting point: 200 to 202 °C

COc1cccc2c1C(=O)c1c(O)c3c(c(O)c1C2=O)C[C@@](O)(C(=O)CO)C[C@@H]3O[C@H]1C[C@H](N)[C@H](O)[C@H](C)O1 [Doxorubicin, doxorubicin]
EC50 (murine cell line L1210): 0.269 µg/mL (≈ 0.495 µM)
EC50 (murine cell line P388): 0.204 µg/mL (≈ 0.375 µM)
EC50 (resistant line LT12/mdr): > 3.16 µg/mL
EC50 [3]: > 3.16 µg/mL
EC50 [4]: 0.029 µg/mL (≈ 0.0534 µM)
EC50 [5]: > 3.16 µg/mL

COc1cc([C@@H]2c3cc4c(cc3[C@@H](O[C@@H]3O[C@@H]5CO[C@@H](C)O[C@H]5[C@H](O)[C@H]3O)[C@H]3COC(=O)[C@H]23)OCO4)cc(OC)c1O [Etoposide, etoposide]
EC50 (murine cell line L1210): 0.269 µg/mL (≈ 0.457 µM)
EC50 (murine cell line P388): 0.202 µg/mL (≈ 0.343 µM)
EC50 (resistant line LT12/mdr): > 3.6 µg/mL
EC50 [3]: > 3.16 µg/mL
EC50 [4]: 0.094 µg/mL (≈ 0.16 µM)
EC50 [5]: > 3.16 µg/mL

O=C1c2c(O)ccc(O)c2C(=O)c2c(NCCNCCO)ccc(NCCNCCO)c21 [Mitoxantrone, mitoxantrone]
EC50 (murine cell line L1210): 0.09 µg/mL (≈ 0.202 µM)
EC50 (murine cell line P388): 0.053 µg/mL (≈ 0.119 µM)
EC50 (KB/HeLa cells): 25.3 nM
EC50 (resistant line LT12/mdr): 3.1 µg/mL (≈ 6.97 µM)
EC50 [3]: 2.1 µg/mL (≈ 4.72 µM)
EC50 [4]: 0.006 µg/mL (≈ 0.0135 µM)
EC50 [5]: 0.608 µg/mL (≈ 1.37 µM)

CC[C@]1(O)C[C@H]2CN(CCc3c([nH]c4ccccc34)[C@@](C(=O)OC)(c3cc4c(cc3OC)N(C=O)[C@H]3[C@@](O)(C(=O)OC)[C@H](OC(C)=O)[C@]5(CC)C=CCN6CC[C@]43[C@@H]65)C2)C1 [Vincristine, vincristine]
EC50 (murine cell line L1210): 0.015 µg/mL (≈ 0.0182 µM)
EC50 (murine cell line P388): 0.004 µg/mL (≈ 0.00485 µM)
EC50 (resistant line LT12/mdr): 0.134 µg/mL (≈ 0.162 µM)
inhibition of topoisomerase II, pRYG DNA relaxation (human topoisomerase II): neither paclitaxel nor vincristine was observed to have any inhibitory effects
inhibition of topoisomerase II, kDNA decatenation [2]: neither paclitaxel nor vincristine was observed to have any inhibitory effects
EC50 [3]: > 3.16 µg/mL
EC50 [4]: 0.002 µg/mL (≈ 0.00242 µM)
EC50 [5]: 0.93 µg/mL (≈ 1.13 µM)
